# Experimental data from publication PMC7355430, “Imunofan—RDKVYR Peptide—Stimulates Skin Cell Proliferation and Promotes Tissue Repair” (Molecules, 2020).
# Peptide text beside a SMILES is read from it.
# Columns and labels:
# CTL, Th and NK cells = assay: Immune cell activation in PBMCs, flow cytometry; format: cell-based, human; details: 0.1 and 1.0 µg/mL, 48 h, 5 independent experiments
# Description: Immunological tests were conducted on human peripheral blood mononuclear cells, isolated from “buffy coats” using a ficoll density gradient (Histopaque, Sigma-Aldrich, St. Louis, MO, USA). Buffy coats for were obtained from blood of healthy anonymous donors of the Regional Center of Blood Donation and Blood Therapy in Gdansk, Poland. After washing in PBS, erythrocyte lysis, and cell counting (cell counter, Bio-Rad), the PBMCs were seeded onto a 24-well culture plate at a density of 10^6 cells/1 mL of RPMI 1640 (Penicillin/Streptomycin, 10% FBS) per well. After cell resting for 24 h, cells were stimulated with IM peptide (0.1 µg/mL and 1.0 µg/mL) for the next 48 h under appropriate conditions (37 °C, 5% CO2). The untreated cells were used as a negative control, whereas cells stimulated with LPS (1 µg/mL) and PHA (2.5 µg/mL) were a positive control. After incubation, the PBMCs were collected, washed with PBS, counted and prepared for flow cytometry analysis. 10^4 cells/100 µl were stained with monoclonal, fluorochrome-conjugated antibodies (anti-CD3, -CD4, -CD8, -CD16, -CD56, -CD25, -CD69, -CD71, -HLA-DR, -CD11c, -CD80, and -CD83) and incubated for 30 min in RT in the dark. Stained cells were analyzed using a flow cytometer (LSRFortessa, BD, USA). All data are presented as percentages due to the application of hospital diagnostic laboratory standards for immune cells analyses.
# [1] = system: primary cortical neural cultures; assay: Neural viability, CellTiterBlue assay; format: cell-based, Wistar rat; details: 1, 10, 100, 200 µM, 20 h, 37 °C; CellTiterBlue (Figure S6)
# Description: Neural viability assessments. Primary cortical neural cultures were obtained from E18.5 Wistar rat embryos. For this purpose, the rat was euthanized in a CO2 chamber. The cortex tissue was immediately excised from the brain, moved to a HBSS medium (diluted 10 × and supplemented with a penicilin/streptomycin mixture), and washed precisely. Afterwards, the tissue was trypsinized for 10 min at 37 °C, and homogenized gently. […] Neural viability was quantitatively examined by CellTiterBlue® (CTB) assay (Promega, G8080) after 20-hour long incubation of the cells at 37 °C in the CO2. […] Fluorescence intensity of the CTB reagent is measured spectrofluorymetrically (560ex/590em) and is proportional to the number of viable cells. No insult sample referred as a 100% viability control and the data from the insulted cells was quantified and presented relatively as mean ± SD. The data was analyzed by a Mann-Whitney test with p-value < 0.05 values considered statistically significant. […]
# Influence of Imunofan on neural viability. Influence of Imunofan on neural viability was assessed by exposing the cells to different peptide concentrations (1, 10, 100, 200 µM) for 20 h at 37 °C in a 5% CO2 chamber. […]
# [2] = Stability in human plasma; format: in vitro ADME; details: human plasma (EDTA)
# Description: A stability test in plasma was performed as previously described. Blood was collected from healthy anonymous donors and EDTA was then used as an anticoagulant. The plasma was aliquoted and incubated with IM peptide for 1, 2, 3, 6, and 24 h at 37 °C, at a final concentration of 300 µM. The analyses were performed by HPLC applying the conditions specified above.
# For calculations, peak areas were compared to a calibration curve calculated by LC solution Software (Shimadzu, Kyoto, Japan).
# basophils = assay: Basophil activation test (BAT); format: cell-based, human; details: 0.1 µg/mL, whole blood of healthy volunteers, Flow CAST highsens; cut-off 5%; 7 independent experiments
# Description: The commercially available test Flow CAST® highsens (Bühlmann Laboratories, Schönenbuch, Switzerland) was used to perform BAT test on blood samples collected from healthy volunteers, who were not suffering from allergy, within 24 h of collection, according to the manufacturer’s protocol. Then, 100 µL of blood was incubated and IM peptide was added to the wells at a final concentration of 0.1 µg/mL. The cells were then stained with fluorochrome-stained monoclonal antibodies (anti-CD63, -CD203c, -CCR3) and incubated for 15 min at 37 °C. Then, erythrocyte lysis was performed, the cells were washed and analyzed by flow cytometry (BD FACSCanto II, San Jose, CA, USA). Each sample was accompanied by its own negative and positive control (anti-FcεRI mAb and fMLP).
# HaCaT keratinocytes = assay: Chemotaxis assay, ThinCert inserts; format: cell-based, human; details: 0.1 and 1 µg/mL, 24 h, serum-free; n=12 (Figure S7B)
# Description: The effect of IM on cell chemotaxis was assessed with ThinCert cell culture inserts (8 μm, Greiner Bio-One, Kremsmünster, Austria). Cells were starved overnight in serum-free high-glucose DMEM and then seeded on inserts placed in a 24-well plate, at a density of 100,000 cells, in serum-free medium. Culture medium with appropriate concentrations of IM was then added to the wells of the plate and incubated for 24 h. The cells were stained with 8 μM Calcein-AM (BD Pharmingen), then migratory cells were detached with typsin-EDTA (Sigma-Aldrich, St. Louis, MO, USA). Detached cells were transferred to another plate and read with a fluorescence plate reader at an excitation wavelength of 485 nm and an emission wavelength of 520 nm.
smiles,measurement,setting,value
"CC(C)[C@H](NC(=O)[C@H](CCCCN)NC(=O)[C@H](CC(=O)O)NC(=O)[C@@H](N)CCCNC(=N)N)C(=O)N[C@@H](Cc1ccc(O)cc1)C(=O)N[C@@H](CCCNC(=N)N)C(=O)O [IM, H-Arg-Asp-Lys-Val-Tyr-Arg-OH] (H-RDKVYR-OH)","immunogenic properties (activation of CTL, Th, NK)","CTL, Th and NK cells",no immunogenic properties
same,toxicity to primary neural cells (viability),[1],not toxic
same,signal of the IM peptide in plasma after 1 h,"[2]; 300 µM, 37 °C, 1 h, albumins removed with ethanol and centrifugation, HPLC C18, PDA, n=3 (Figure S1)",no longer seen
same,signal of the IM peptide in plasma at time point 0 h,"[2]; mixture without incubation, whole sample preparation (ethanol, centrifugation), HPLC (Figure S2)",barely any signal of peptide
same,level of degranulated cells (basophil activation),basophils,below 5%
same,inhibition of chemotaxis with respect to the control,HaCaT keratinocytes,10–20%
